# From PMC5862592, “CDK8/19 inhibition induces premature G1/S transition and ATR-dependent cell death in prostate cancer cells” (Oncotarget, 2018)
# Where two headings read alike, the source gives them in different places.
# How the values were obtained:
# Test in all cases: biochemical
# Design in all cases: KINOMEscan active site-directed competition binding assay (DiscoveRx), 456 kinases, per cent of control at 300 nM
# Settings in all cases: read-out: Percent of Control (%)
# SBK1 = SBK1 (Homo sapiens, UniProt Q52WX2)
# Chain of SBK1 (Q52WX2 whole entry): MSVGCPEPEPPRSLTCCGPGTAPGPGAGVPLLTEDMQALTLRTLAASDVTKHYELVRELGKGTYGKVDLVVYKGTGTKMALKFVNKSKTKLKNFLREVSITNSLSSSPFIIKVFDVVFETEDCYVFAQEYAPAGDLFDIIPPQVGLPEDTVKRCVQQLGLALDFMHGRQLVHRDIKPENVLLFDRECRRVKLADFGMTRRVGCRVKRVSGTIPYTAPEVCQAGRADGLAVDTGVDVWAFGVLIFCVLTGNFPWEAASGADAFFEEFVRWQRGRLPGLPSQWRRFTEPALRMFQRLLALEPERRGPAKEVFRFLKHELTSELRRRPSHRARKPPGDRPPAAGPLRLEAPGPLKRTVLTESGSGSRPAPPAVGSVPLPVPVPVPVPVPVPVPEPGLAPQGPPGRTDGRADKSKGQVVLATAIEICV
# Method in brief: (§1)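 Kinase panel (456 enzymes) profiled by competitive displacement at the active site; compounds run at 300 nmol/L.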
# HIPK2 = HIPK2 (Homo sapiens, UniProt Q9H2X6)
# Method in brief: as §1
# MEK4 = target: T1, MEK4 (Homo sapiens, UniProt P45985)
# T1 construct: gene MAP2K4
# Method in brief: as §1
# MINK = target: T2, MINK (Homo sapiens, UniProt Q8N4C8)
# T2 construct: gene MINK1
# T2 sequence (Q8N4C8 whole entry): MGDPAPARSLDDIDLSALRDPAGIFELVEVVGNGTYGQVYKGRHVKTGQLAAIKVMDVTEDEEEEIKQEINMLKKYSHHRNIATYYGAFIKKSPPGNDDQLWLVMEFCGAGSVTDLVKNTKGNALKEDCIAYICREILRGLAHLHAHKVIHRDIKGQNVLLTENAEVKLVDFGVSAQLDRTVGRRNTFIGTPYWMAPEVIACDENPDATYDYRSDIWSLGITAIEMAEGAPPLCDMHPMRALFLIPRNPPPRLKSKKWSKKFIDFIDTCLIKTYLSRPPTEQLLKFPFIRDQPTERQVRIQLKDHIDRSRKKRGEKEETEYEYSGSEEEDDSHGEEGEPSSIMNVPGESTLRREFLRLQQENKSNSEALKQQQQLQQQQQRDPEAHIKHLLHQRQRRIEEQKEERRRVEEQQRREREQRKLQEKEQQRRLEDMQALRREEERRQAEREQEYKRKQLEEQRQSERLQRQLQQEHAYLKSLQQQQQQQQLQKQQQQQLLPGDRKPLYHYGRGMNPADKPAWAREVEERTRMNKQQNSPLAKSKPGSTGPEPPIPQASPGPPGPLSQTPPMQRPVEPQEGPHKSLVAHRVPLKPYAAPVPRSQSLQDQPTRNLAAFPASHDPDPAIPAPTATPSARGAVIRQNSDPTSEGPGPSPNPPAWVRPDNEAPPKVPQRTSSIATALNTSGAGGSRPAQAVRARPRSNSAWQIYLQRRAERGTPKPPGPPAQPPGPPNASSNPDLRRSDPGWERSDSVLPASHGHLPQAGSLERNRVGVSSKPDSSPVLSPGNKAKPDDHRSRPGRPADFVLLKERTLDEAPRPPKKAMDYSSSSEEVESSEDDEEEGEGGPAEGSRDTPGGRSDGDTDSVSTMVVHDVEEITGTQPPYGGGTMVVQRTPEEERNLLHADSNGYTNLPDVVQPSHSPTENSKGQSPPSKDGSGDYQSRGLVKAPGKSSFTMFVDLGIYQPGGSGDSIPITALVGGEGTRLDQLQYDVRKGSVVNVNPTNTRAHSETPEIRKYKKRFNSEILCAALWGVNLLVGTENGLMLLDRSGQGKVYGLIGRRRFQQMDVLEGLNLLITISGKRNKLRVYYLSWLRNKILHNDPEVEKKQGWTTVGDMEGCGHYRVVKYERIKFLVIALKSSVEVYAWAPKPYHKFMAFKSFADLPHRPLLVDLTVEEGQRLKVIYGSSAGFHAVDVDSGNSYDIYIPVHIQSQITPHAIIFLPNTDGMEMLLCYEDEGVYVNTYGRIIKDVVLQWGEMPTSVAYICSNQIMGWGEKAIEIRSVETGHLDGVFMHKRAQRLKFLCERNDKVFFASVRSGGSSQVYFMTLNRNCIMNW
# Method in brief: as §1
# CSNK1G2 = CSNK1G2 (Homo sapiens, UniProt P78368)
# Method in brief: as §1
# CSNK1A1L = CSNK1A1L (Homo sapiens, UniProt Q8N752)
# Method in brief: as §1
# ICK = target: T3, ICK (Homo sapiens, UniProt Q9UPZ9)
# T3 construct: gene CILK1
# T3 sequence (Q9UPZ9 whole entry): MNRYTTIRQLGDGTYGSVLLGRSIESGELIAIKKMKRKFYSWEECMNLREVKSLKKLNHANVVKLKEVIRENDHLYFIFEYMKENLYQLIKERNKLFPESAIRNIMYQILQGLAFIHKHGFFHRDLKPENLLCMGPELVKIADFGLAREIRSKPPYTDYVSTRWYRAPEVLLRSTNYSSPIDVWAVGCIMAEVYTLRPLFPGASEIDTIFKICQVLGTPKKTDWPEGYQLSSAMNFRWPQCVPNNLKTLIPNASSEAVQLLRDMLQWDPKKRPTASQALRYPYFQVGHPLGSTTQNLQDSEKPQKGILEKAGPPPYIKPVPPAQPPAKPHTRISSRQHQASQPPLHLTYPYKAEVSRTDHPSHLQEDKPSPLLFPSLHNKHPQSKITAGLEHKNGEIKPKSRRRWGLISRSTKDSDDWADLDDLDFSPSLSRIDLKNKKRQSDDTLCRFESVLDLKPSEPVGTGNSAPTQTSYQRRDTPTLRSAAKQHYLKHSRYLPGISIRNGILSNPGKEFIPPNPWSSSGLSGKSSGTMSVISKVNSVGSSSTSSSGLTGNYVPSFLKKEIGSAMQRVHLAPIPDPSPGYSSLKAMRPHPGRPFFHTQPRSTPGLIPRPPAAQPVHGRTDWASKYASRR
# Method in brief: as §1
# MARK1 = MARK1 (Homo sapiens, UniProt Q9P0L2)
# Method in brief: as §1
# FLT3-autoinhibited = FLT3-autoinhibited (Homo sapiens, UniProt P36888)
# Method in brief: as §1
# CSNK1G3 = CSNK1G3 (Homo sapiens, UniProt Q9Y6M4)
# Method in brief: as §1
# CDKL3 = CDKL3 (Homo sapiens, UniProt Q8IVW4)
# Chain of CDKL3 (Q8IVW4 whole entry): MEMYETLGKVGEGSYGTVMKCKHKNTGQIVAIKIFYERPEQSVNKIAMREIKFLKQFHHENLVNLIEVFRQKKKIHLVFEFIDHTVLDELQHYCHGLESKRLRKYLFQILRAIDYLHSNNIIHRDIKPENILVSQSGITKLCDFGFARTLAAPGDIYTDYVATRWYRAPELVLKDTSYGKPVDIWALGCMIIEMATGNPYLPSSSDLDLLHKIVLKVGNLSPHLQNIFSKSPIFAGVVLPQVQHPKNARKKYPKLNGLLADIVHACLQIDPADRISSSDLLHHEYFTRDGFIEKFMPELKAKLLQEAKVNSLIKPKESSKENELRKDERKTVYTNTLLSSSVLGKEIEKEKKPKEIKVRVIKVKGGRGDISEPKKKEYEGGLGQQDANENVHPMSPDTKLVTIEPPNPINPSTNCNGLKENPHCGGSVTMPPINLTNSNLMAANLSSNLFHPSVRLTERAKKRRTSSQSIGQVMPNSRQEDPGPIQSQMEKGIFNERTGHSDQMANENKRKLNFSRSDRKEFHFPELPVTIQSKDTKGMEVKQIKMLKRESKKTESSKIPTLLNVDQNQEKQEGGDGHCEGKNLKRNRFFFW
# Method in brief: as §1
# MAP4K5 = MAP4K5 (Homo sapiens, UniProt Q9Y4K4)
# Chain of MAP4K5 (Q9Y4K4 whole entry): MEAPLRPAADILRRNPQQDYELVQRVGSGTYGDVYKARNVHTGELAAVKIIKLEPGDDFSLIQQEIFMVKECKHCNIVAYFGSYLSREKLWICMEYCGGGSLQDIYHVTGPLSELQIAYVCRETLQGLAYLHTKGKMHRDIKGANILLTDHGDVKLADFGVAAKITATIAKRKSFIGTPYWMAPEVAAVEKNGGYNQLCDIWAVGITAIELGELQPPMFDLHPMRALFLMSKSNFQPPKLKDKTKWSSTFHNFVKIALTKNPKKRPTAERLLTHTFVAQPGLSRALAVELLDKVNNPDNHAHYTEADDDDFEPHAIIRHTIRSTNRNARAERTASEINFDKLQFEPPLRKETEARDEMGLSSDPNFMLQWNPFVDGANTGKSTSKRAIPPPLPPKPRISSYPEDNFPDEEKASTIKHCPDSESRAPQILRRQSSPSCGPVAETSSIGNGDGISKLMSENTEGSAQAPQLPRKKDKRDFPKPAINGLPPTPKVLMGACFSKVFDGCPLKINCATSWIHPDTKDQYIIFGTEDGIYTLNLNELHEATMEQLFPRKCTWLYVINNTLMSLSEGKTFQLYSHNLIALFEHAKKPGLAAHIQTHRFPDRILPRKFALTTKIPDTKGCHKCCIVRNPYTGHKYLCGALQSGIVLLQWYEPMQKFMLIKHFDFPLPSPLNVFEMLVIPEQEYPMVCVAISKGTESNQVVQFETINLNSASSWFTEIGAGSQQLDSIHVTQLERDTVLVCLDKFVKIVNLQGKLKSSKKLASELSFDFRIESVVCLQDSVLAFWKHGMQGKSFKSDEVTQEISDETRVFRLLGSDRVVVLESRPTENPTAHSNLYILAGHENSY
# Method in brief: as §1
# FGFR3 = FGFR3 (Homo sapiens, UniProt P22607)
# Chain of FGFR3 (P22607 whole entry): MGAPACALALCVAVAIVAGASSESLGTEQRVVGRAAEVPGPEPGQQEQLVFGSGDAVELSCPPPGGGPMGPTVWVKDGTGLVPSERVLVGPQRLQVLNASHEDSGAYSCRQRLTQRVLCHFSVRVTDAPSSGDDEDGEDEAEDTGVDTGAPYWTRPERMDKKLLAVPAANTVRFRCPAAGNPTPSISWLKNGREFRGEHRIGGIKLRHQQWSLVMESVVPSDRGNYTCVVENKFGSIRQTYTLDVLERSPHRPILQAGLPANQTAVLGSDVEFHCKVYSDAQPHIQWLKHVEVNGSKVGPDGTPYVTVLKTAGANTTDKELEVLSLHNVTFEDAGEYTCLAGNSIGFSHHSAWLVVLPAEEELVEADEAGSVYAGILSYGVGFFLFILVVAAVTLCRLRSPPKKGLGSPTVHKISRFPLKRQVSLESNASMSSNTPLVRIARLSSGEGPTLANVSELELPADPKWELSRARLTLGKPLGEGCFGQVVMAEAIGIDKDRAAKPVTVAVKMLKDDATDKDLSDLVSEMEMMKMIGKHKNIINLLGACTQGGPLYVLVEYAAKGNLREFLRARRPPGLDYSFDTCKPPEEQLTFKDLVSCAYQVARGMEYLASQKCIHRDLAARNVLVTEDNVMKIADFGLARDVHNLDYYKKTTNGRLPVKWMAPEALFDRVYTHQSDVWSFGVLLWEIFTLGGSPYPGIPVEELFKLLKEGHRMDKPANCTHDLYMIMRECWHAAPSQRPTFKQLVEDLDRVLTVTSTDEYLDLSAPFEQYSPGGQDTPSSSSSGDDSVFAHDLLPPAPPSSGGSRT
# Method in brief: as §1
# KIT-autoinhibited = KIT-autoinhibited (Homo sapiens, UniProt P10721)
# Method in brief: as §1
# MELK = MELK (Homo sapiens, UniProt Q14680)
# Method in brief: as §1
# EGFR(T790M) = EGFR(T790M) (Homo sapiens, UniProt P00533, T790M)
# Method in brief: as §1
# PAK2 = PAK2 (Homo sapiens, UniProt Q13177)
# Method in brief: as §1
# CIT = CIT (Homo sapiens, UniProt O14578)
# Method in brief: as §1
# CDKL1 = CDKL1 (Homo sapiens, UniProt Q00532)
# Chain of CDKL1 (Q00532 whole entry): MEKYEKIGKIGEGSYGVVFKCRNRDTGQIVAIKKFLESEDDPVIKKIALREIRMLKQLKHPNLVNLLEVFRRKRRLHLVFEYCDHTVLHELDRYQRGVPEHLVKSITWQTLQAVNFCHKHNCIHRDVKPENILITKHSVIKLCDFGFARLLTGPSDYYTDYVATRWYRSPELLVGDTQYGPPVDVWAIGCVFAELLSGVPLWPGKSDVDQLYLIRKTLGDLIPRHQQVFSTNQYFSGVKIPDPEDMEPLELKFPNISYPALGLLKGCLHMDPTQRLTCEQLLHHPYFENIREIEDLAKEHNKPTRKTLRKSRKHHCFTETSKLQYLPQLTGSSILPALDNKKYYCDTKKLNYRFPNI
# Method in brief: as §1
# QSK = target: T4, QSK (Homo sapiens, UniProt Q9Y2K2)
# T4 construct: gene SIK3
# Method in brief: as §1
# PCTK2 = target: T5, PCTK2 (Homo sapiens, UniProt Q00537)
# T5 construct: gene CDK17
# Method in brief: as §1
# MAPKAPK5 = MAPKAPK5 (Homo sapiens, UniProt Q8IW41)
# Method in brief: as §1
compound,measurement,setting,value
"O=C(/C=C/c1cnccc1-c1ccc(F)cc1)Nc1ccc(CCc2nnco2)cc1 [T-418, (2E)-3-(4-(4-fluorophenyl)pyridin-3-yl)-N-(4-(2-(1,3,4-oxadiazol-2-yl)ethyl)phenyl)acrylamide]",remaining binding at 0.3 µM,SBK1; sheet T-418,73%
same,remaining binding at 0.3 µM,HIPK2; sheet T-418,53%
same,remaining binding at 0.3 µM,MEK4; sheet T-418,100%
same,remaining binding at 0.3 µM,MINK; sheet T-418,80%
same,remaining binding at 0.3 µM,CSNK1G2; sheet T-418,100%
same,remaining binding at 0.3 µM,CSNK1A1L; sheet T-418,92%
same,remaining binding at 0.3 µM,ICK; sheet T-418,100%
same,remaining binding at 0.3 µM,MARK1; sheet T-418,100%
same,remaining binding at 0.3 µM,FLT3-autoinhibited; sheet T-418,89%
same,remaining binding at 0.3 µM,CSNK1G3; sheet T-418,100%
same,remaining binding at 0.3 µM,CDKL3; sheet T-418,78%
same,remaining binding at 0.3 µM,MAP4K5; sheet T-418,85%
same,remaining binding at 0.3 µM,FGFR3; sheet T-418,100%
same,remaining binding at 0.3 µM,KIT-autoinhibited; sheet T-418,100%
same,remaining binding at 0.3 µM,MELK; sheet T-418,100%
same,remaining binding at 0.3 µM,EGFR(T790M); sheet T-418,95%
same,remaining binding at 0.3 µM,PAK2; sheet T-418,70%
same,remaining binding at 0.3 µM,CIT; sheet T-418,95%
same,remaining binding at 0.3 µM,CDKL1; sheet T-418,88%
same,remaining binding at 0.3 µM,QSK; sheet T-418,95%
same,remaining binding at 0.3 µM,PCTK2; sheet T-418,100%
same,remaining binding at 0.3 µM,MAPKAPK5; sheet T-418,92%
"Cc1ncccc1Oc1sc(C(N)=O)c2c1-c1c(cnn1C)CC2 [T-474, 1-methyl-8-((2-methylpyridin-3-yl)oxy)-4,5-dihydro-1H-thieno[3,4-g]indazole-6-carboxamide]",remaining binding at 0.3 µM,SBK1,91%
same,remaining binding at 0.3 µM,HIPK2,42%
same,remaining binding at 0.3 µM,MEK4,100%
same,remaining binding at 0.3 µM,MINK,100%
same,remaining binding at 0.3 µM,CSNK1G2,90%
same,remaining binding at 0.3 µM,CSNK1A1L,100%
same,remaining binding at 0.3 µM,ICK,100%
same,remaining binding at 0.3 µM,MARK1,81%
same,remaining binding at 0.3 µM,FLT3-autoinhibited,78%
same,remaining binding at 0.3 µM,CSNK1G3,100%
same,remaining binding at 0.3 µM,CDKL3,96%
same,remaining binding at 0.3 µM,MAP4K5,70%
same,remaining binding at 0.3 µM,FGFR3,97%
same,remaining binding at 0.3 µM,KIT-autoinhibited,100%
same,remaining binding at 0.3 µM,MELK,71%
same,remaining binding at 0.3 µM,EGFR(T790M),100%
same,remaining binding at 0.3 µM,PAK2,88%
same,remaining binding at 0.3 µM,CIT,93%
same,remaining binding at 0.3 µM,CDKL1,76%
same,remaining binding at 0.3 µM,QSK,93%
same,remaining binding at 0.3 µM,PCTK2,100%
same,remaining binding at 0.3 µM,MAPKAPK5,98%
